Drawing on patent US7670990B2, “Fungicidal composition comprising a pyridylethylbenzamide derivative and a compound capable of inhibiting mitosis and cell division” (Bayer Cropscience S.A., priority 2004, dated 2010), this text covers Emax for two compounds.

The test system of the experiment is Erysiphe graminis f. sp. tritici. Kind of experiment: Efficacy against Erysiphe graminis f. sp. tritici on wheat plants (preventive spray treatment). Type of experiment: in vivo. The conditions noted are these: Blumeria graminis, single active, wheat sprayed at 1-leaf stage, contaminated after 24 hours, graded 7 to 14 days after contamination vs control plants. Here is the method:
The active ingredients tested are prepared by potter homogenisation in a mixture of acetone/tween/water. This suspension is then diluted with water to obtain the desired active material concentration.
Wheat plants (Audace variety) in starter cups, sown on 50/50 peat soil-pozzolana substrate and grown at 12° C., are treated at the 1-leaf stage (10 cm tall) by spraying with the aqueous suspension described above.
Plants, used as controls, are treated with an aqueous solution not containing the active material.
After 24 hours, the plants are contaminated by dusting them with Erysiphe graminis f. sp. tritici spores, the dusting being carried out using diseased plants.
Grading is carried out 7 to 14 days after the contamination, in comparison with the control plants.

For orientation: Emax means the greatest response seen or fitted, relative to the assay's reference.

In turn, `COC(=O)Nc1nc2ccccc2[nH]1` [Carbendazim, carbendazim] showed a maximal effect (Emax) at 62.5 g/ha of 0% and an Emax at 125 g/ha of 16%.
`O=C(NCCc1ncc(C(F)(F)F)cc1Cl)c1ccccc1C(F)(F)F` [Compound 1, N-{2-[3-chloro-5-(trifluoromethyl)-2-pyridinyl]ethyl}-2-trifluoromethylbenzamide] yielded a maximum response (Emax) at 62.5 g/ha of 42% and an Emax at 125 g/ha of 63%.
